# Data reported in ChEMBL document CHEMBL2073825, “Ex vivo reversal of chemoresistance by tariquidar (XR9576)” (Anticancer Drugs, 2004).
# Molecular target: ATP-dependent translocase ABCB1 (Homo sapiens, UniProt P08183)
# Assay: TP_TRANSPORTER: Vinorelbine-induced cytotoxicity in P-gp positive tumor
# Assay type: functional, tissue-based, Neoplasm
# Chain of ATP-dependent translocase ABCB1 (P08183 whole entry): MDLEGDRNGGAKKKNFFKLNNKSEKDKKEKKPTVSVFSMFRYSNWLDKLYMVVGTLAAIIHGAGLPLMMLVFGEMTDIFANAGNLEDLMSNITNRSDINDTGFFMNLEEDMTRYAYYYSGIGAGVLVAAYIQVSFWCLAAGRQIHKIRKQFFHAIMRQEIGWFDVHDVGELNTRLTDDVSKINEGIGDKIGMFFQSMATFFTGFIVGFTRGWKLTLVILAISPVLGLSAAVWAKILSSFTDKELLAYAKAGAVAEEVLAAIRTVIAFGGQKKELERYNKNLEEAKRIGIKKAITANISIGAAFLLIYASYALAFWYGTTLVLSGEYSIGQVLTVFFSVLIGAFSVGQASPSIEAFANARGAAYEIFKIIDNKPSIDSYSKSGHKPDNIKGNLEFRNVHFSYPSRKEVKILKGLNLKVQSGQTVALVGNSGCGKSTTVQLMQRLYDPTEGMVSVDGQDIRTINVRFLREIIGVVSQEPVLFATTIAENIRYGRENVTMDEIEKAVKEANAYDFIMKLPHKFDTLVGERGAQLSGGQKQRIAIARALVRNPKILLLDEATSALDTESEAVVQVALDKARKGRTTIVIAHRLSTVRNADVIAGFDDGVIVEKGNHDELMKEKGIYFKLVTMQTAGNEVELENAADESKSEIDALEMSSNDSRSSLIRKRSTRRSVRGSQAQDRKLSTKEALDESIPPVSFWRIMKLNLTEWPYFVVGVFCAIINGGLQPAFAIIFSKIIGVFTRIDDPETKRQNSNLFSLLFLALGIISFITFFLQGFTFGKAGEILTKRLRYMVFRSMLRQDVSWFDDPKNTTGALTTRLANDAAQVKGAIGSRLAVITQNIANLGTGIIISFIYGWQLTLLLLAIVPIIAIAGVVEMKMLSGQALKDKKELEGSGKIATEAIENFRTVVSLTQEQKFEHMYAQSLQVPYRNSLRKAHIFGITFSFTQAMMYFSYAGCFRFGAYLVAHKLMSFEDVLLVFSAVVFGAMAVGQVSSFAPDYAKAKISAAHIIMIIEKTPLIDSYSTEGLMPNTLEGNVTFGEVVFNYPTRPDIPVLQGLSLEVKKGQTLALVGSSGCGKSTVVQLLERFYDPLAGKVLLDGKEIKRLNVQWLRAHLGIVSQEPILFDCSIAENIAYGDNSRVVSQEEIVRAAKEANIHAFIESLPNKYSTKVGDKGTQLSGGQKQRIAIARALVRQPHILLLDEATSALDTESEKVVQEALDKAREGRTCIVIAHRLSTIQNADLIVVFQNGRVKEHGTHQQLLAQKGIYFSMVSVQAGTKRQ
smiles,measurement,value
COc1cc2c(cc1OC)CN(CCc1ccc(NC(=O)c3cc(OC)c(OC)cc3NC(=O)c3cnc4ccccc4c3)cc1)CC2 [TARIQUIDAR],Activity,inhibitor [+]
